Measured values: BigSolDB 2.1

N[C@@H](CC(=O)N1CCn2c(nnc2C(F)(F)F)C1)Cc1cc(F)c(F)cc1F
Conditions | solubility (mole fraction)
in THF, 278.15 K | 0.0212
in THF, 283.15 K | 0.0274
in THF, 288.15 K | 0.0322
in THF, 293.15 K | 0.0363
in THF, 298.15 K | 0.0463
in THF, 303.15 K | 0.0554
in THF, 308.15 K | 0.0625
in THF, 313.15 K | 0.0756
in THF, 318.15 K | 0.0933
in THF, 323.25 K | 0.114
in acetonitrile, 278.15 K | 0.0265
in acetonitrile, 283.15 K | 0.0354
in acetonitrile, 288.15 K | 0.0432
in acetonitrile, 293.15 K | 0.0536
in acetonitrile, 298.15 K | 0.0576
in acetonitrile, 303.15 K | 0.0681
in acetonitrile, 308.15 K | 0.0888
in acetonitrile, 313.15 K | 0.105
in acetonitrile, 318.15 K | 0.128
in acetonitrile, 323.15 K | 0.156
in ethanol, 273.15 K | 0.00768
in ethanol, 278.15 K | 0.0108
in ethanol, 283.15 K | 0.0138
in ethanol, 288.15 K | 0.0179
in ethanol, 293.15 K | 0.0233
in ethanol, 298.15 K | 0.0298
in ethanol, 303.15 K | 0.0363
in ethanol, 308.15 K | 0.0451
in ethanol, 313.15 K | 0.0606
in ethanol, 318.15 K | 0.078
in ethyl acetate, 278.15 K | 0.00986
in ethyl acetate, 283.15 K | 0.0117
in ethyl acetate, 288.15 K | 0.014
in ethyl acetate, 293.15 K | 0.0167
in ethyl acetate, 298.15 K | 0.02
in ethyl acetate, 303.15 K | 0.0242
in ethyl acetate, 308.15 K | 0.0286
in ethyl acetate, 313.15 K | 0.0353
in ethyl acetate, 318.15 K | 0.0435
in ethyl acetate, 323.15 K | 0.0565
in isobutanol, 278.15 K | 0.0101
in isobutanol, 283.15 K | 0.0123
in isobutanol, 288.15 K | 0.014
in isobutanol, 293.15 K | 0.0158
in isobutanol, 298.15 K | 0.0191
in isobutanol, 303.15 K | 0.0216
in isobutanol, 308.15 K | 0.0255
in isobutanol, 313.15 K | 0.0301
in isobutanol, 318.15 K | 0.0334
in isobutanol, 323.15 K | 0.0379
in isopentanol, 278.15 K | 0.00453
in isopentanol, 283.15 K | 0.0054
in isopentanol, 288.15 K | 0.00647
in isopentanol, 293.15 K | 0.00801
in isopentanol, 298.15 K | 0.0104
in isopentanol, 303.15 K | 0.0123
in isopentanol, 308.15 K | 0.0154
in isopentanol, 313.15 K | 0.0184
in isopentanol, 318.15 K | 0.0232
in isopentanol, 323.15 K | 0.0316
in isopropanol, 273.15 K | 0.00439
in isopropanol, 278.15 K | 0.00482
in isopropanol, 283.15 K | 0.00579
in isopropanol, 288.15 K | 0.00703
in isopropanol, 293.15 K | 0.00857
in isopropanol, 298.15 K | 0.0103
in isopropanol, 303.15 K | 0.0122
in isopropanol, 308.15 K | 0.0139
in isopropanol, 313.15 K | 0.0162
in isopropanol, 318.15 K | 0.0188
in methyl acetate, 278.15 K | 0.0397
in methyl acetate, 283.15 K | 0.05
in methyl acetate, 288.15 K | 0.0545
in methyl acetate, 293.15 K | 0.063
in methyl acetate, 298.15 K | 0.0728
in methyl acetate, 303.15 K | 0.0835
in methyl acetate, 308.15 K | 0.0954
in methyl acetate, 313.15 K | 0.111
in methyl acetate, 318.15 K | 0.126
in methyl acetate, 323.15 K | 0.139
in n-butanol, 278.15 K | 0.0105
in n-butanol, 283.15 K | 0.0129
in n-butanol, 288.15 K | 0.0141
in n-butanol, 293.15 K | 0.0177
in n-butanol, 298.15 K | 0.0208
in n-butanol, 303.15 K | 0.0243
in n-butanol, 308.15 K | 0.0262
in n-butanol, 313.15 K | 0.0328
in n-butanol, 318.15 K | 0.0382
in n-butanol, 323.15 K | 0.0452
in n-propanol, 278.15 K | 0.00795
in n-propanol, 283.15 K | 0.011
in n-propanol, 288.15 K | 0.0123
in n-propanol, 293.15 K | 0.0183
in n-propanol, 298.15 K | 0.022
in n-propanol, 303.15 K | 0.0278
in n-propanol, 308.15 K | 0.0387
in n-propanol, 313.1 K | 0.0433
in n-propanol, 318.15 K | 0.0572
in n-propanol, 323.15 K | 0.0804
in sec-butanol, 278.15 K | 0.00274
in sec-butanol, 283.15 K | 0.00346
in sec-butanol, 288.15 K | 0.0047
in sec-butanol, 293.15 K | 0.00513
in sec-butanol, 298.15 K | 0.00739
in sec-butanol, 303.15 K | 0.00958
in sec-butanol, 308.15 K | 0.0115
in sec-butanol, 313.15 K | 0.0142
in sec-butanol, 318.15 K | 0.0194
in sec-butanol, 323.15 K | 0.0224
in water, 278.15 K | 0.000281
in water, 283.15 K | 0.000319
in water, 288.15 K | 0.000349
in water, 293.15 K | 0.000376
in water, 298.15 K | 0.00042
in water, 303.15 K | 0.000458
in water, 308.15 K | 0.000499
in water, 313.15 K | 0.000542
in water, 318.15 K | 0.000574
in water, 323.15 K | 0.000633
